The results in this text go back to EP1200114B1, “PPAR DELTA INHIBITORS FOR THE TREATMENT OF CARDIOVASCULAR DISEASES” (priority 1999, dated 2001).

SMILES strings stand for the structures. “Also recorded” adds a separate entry of the source.

For data set [1], the system named is parental THP-1 cells. Kind of data set: PMA-induced differentiation (adherence to culture dish) of parental THP-1 cells. The note with it: incubated with PMA and inhibitor. It is filed as cell-based, human. How it is done:
(§1) Cells were treated overnight with 5ng/ml PMA and scored for differentiation (adherence to culture dish) and viability (trypan blue exclusion).
(§2) Parental and PPARδ anti-sense cells were incubated with PMA and an inhibitor of PKC activity (Bis) and two inhibitors of PLA2 activity (OBAA and mepacrine). These inhibitors were included at concentrations used in previous studies for specific inhibition.

Data set [2] relates to PPARδ anti-sense cell line. Nature of the data set: Viability (trypan blue exclusion) of PPARδ anti-sense cells treated with PMA. It is filed as cell-based, human. Conditions: incubated with PMA and inhibitor. How it is done:
as §1, §2

In the next data set the test system is THP-1 cells. Nature of the data set: THP-1 foam cell model (PMA-activated cells, Oil Red O lipid staining). The format is cell-based, human. The note with it: for lipid accumulation: PMA-treated THP-1 cells, Oil Red O staining; for foam cell formation: adherent PMA-treated THP-1 cells.
The test system of a further data set is LNCaP. Nature of the data set: Prostate cell growth, colorimetric cell number assay. The format is cell-based. Conditions: low concentrations, 7 days. How it is done:
(§3) Cell lines were plated at 2,500 cells per well in a 24-well plate and cultured in RPMI containing 5% dextran-coated charcoal-treated FCS. Increasing concentrations of Compound F or LG 100268 were included in the culture medium and the cultures were maintained for 7 days with changes of drugs and medium every 48 hours.

For a further data set, the system named is PNT1A. The description is as above. The format is cell-based. Conditions: low concentrations, 7 days. As for the experimental part: as §3
For data set [3], the system named is parental THP-1 cells. As for the experimental part:
as §1, §2

The test system of another data set is ApoE. Nature of the data set: ApoE mRNA by TAQMAN in THP-1 cells. The format is cell-based, human. Conditions: parental THP-1 cells treated with PMA and linoleic acid. As for the experimental part: Total RNA was prepared from parental THP-1 cells treated with PMA (THP-1), or PMA and linoleic acid (THP-1+FA), and untreated PPARδ over-expressing cell line (DELTA). cDNA was prepared from these RNA samples and the cDNA was analysed for ApoE sequences using TAQMAN procedures. The result shown is relative expression normalised for β-actin expression and the error bars represent the standard deviation in duplicate samples.
A general note: Real-time PCR tracks product formation cycle by cycle.

For the compound `CN(C)CCCn1cc(C2=C(c3c[nH]c4ccccc34)C(=O)NC2=O)c2ccccc21` [Bis, bisindoylmaleamide I], in the data set on parental THP-1 cells [1], the “differentiation of parental THP-1 cells” value is “prevented”. In addition, the “PMA-induced "death" of the PPARδ anti-sense cell line” value in data set [2] was “did not block”.

For the compound `Cc1cc2c(cc1C1(c3ccc(C(=O)O)cn3)CC1)C(C)(C)CCC2(C)C` [LG 100268], in the data set with THP-1 cells, the lipid accumulation result is listed as “Increased lipid accumulation” and the foam cell formation result is “promoted foam cell formation in co-operation with fatty acids”. Moreover, in the data set on LNCaP, the growth stimulated result was “also seen”. The growth stimulated result with PNT1A was “also seen”.

For the compound `CCN(CC)CCCC(C)Nc1c2ccc(Cl)cc2nc2ccc(OC)cc12` (centres unmarked) [Mepacrine, 6-chloro-9-[(4-diethylamino)-1-methylbutyl]amino-2-methoxy-acridine], the “toxicity in the parental cells” value in the data set on parental THP-1 cells [3] was “sign of toxicity”. For the same compound, the “differentiation of parental THP-1 cells” value in the data set with parental THP-1 cells [1] is “prevented”. In addition, in data set [2], the “PMA-induced "death" of the PPARδ anti-sense cell line” value was “did not block”.

With `CCCCCCCCCCCCCCCCCCc1ccc(C(=O)C=CC(=O)O)cc1` [OBAA, 3-(4-octadecyl)benzoylacrylic acid], in the data set with parental THP-1 cells [1], the “differentiation of parental THP-1 cells” value is reported as “prevented”. For the same compound, in data set [2], the “PMA-induced "death" of the PPARδ anti-sense cell line” value is “did not block”.

For the compound `Cc1cccc(Nc2cc(Cl)nc(SCC(=O)O)n2)c1C` [Wy 14,643], the foam cell formation result in the data set with THP-1 cells was “no effect”.

As to `CCCCC/C=C\C/C=C\CCCCCCCC(=O)O` [linoleic acid], the lipid accumulation result in the data set with THP-1 cells is reported as “Increased lipid accumulation; also recorded: leads to the accumulation of lipid droplets in the cytoplasm”. Further, the “apoE mRNA levels” value with ApoE is recorded as “reduced”.
